{"source": "ChEMBL document CHEMBL3509421", "about": "“FDA drug approval package for diclofenac acid (NDA 22-202 CP, Ref ID: 3374276)”", "key": {"[1]": {"test": "clinical", "settings": "both, human, plasma, po, 50 mg"}, "[2]": {"test": "Mean minimum Tmax value of diclofenac potassium following oral dosing of PRO-513 50 mg sachet in healthy human", "type": "ADME, organism-based, Plasma", "design": "dietary status Fed, dose 50 mg, dosed compound id 2.46815e+06, dosed compound name Diclofenac potassium, gender Mixed, regimen Single, route oral, study doses 50 mg", "settings": "in vivo"}, "[3]": {"test": "Geometric mean for apparent terminal elimination rate constant of diclofenac following single oral dosing of 18 mg Zorvolex capsule in healthy human", "type": "ADME, organism-based, Plasma", "design": "dietary status Fasting, dose 18 mg, dosed compound id 2.46815e+06, dosed compound name Diclofenac, gender Mixed, regimen Single, route oral", "settings": "in vivo"}, "[4]": {"test": "Maximum tmax of diclofenac following single oral dosing of 35 mg Zorvolex capsule in healthy human", "type": "ADME, organism-based, Plasma", "design": "dietary status Fasting, dose 35 mg, dosed compound id 2.46815e+06, dosed compound name Diclofenac, gender Mixed, regimen Single, route oral", "settings": "in vivo"}, "[5]": {"test": "Geometric mean for AUC (0-infinity) of diclofenac following single oral dosing of 35 mg Zorvolex capsule in healthy human", "type": "ADME, organism-based", "design": "time infinity, dietary status Fed, dose 35 mg, dosed compound id 2.46815e+06, dosed compound name Diclofenac, gender Mixed, regimen Single, route oral", "settings": "both, plasma, read-out: AUC (0-infinity)"}, "[6]": {"test": "Geometric mean for Cmax of diclofenac following single oral dosing of 18 mg Zorvolex capsule in healthy human", "type": "ADME, organism-based", "design": "dietary status Fasting, dose 18 mg, dosed compound id 2.46815e+06, dosed compound name Diclofenac, gender Mixed, regimen Single, route oral", "settings": "both, plasma"}, "[7]": {"test": "clinical", "settings": "both, human, plasma, po, 50 mg", "remark": "listed apart in the source", "description": "Mean terminal elimination half-life of diclofenac following single oral dosing of 50 mg diclofenac potassium softgel capsule in healthy human"}, "[8]": {"test": "(§1) Mean Cmax of diclofenac following single oral dosing of 50 mg diclofenac potassium softgel capsule in healthy human", "type": "ADME, organism-based", "design": "dietary status Fed, dose 50 mg, dosed compound id 2.46815e+06, dosed compound name Diclofenac potassium, gender Mixed, regimen Single, route oral, study doses 25/50 mg", "settings": "both, plasma"}, "[9]": {"test": "Mean apparent terminal elimination rate constant value of diclofenac following single oral dosing of 35 mg Zorvolex capsule in healthy human", "type": "ADME, organism-based, Plasma", "design": "dietary status Fasting, dose 35 mg, dosed compound id 2.46815e+06, dosed compound name Diclofenac, gender Mixed, regimen Single, route oral", "settings": "in vivo"}, "[10]": {"test": "(§2) Mean maximum Tmax value of diclofenac potassium following oral dosing of PRO-513 50 mg sachet in healthy human", "type": "ADME, organism-based", "design": "dietary status Fed, dose 50 mg, dosed compound id 2.46815e+06, dosed compound name Diclofenac potassium, gender Mixed, regimen Single, route oral, study doses 50 mg", "settings": "both, plasma, read-out: Maximum Tmax"}, "[11]": {"test": "Mean Kel of diclofenac potassium following oral dosing of PRO-513 50 mg sachet in healthy human", "type": "ADME, organism-based", "design": "dietary status Fed, dose 50 mg, dosed compound id 2.46815e+06, dosed compound name Diclofenac potassium, gender Mixed, regimen Single, route oral, study doses 50 mg", "settings": "both, plasma"}, "[12]": {"test": "Mean minimum Tmax value of diclofenac potassium following oral dosing of Cataflam 50 mf tablet in healthy human", "type": "ADME, organism-based", "design": "dietary status Fed, dose 50 mg, dosed compound id 2.46815e+06, dosed compound name Diclofenac potassium, gender Mixed, regimen Single, route oral, study doses 50 mg", "settings": "both, plasma, 50 mg, read-out: Minimum Tmax"}, "[13]": {"test": "Mean Cmax of diclofenac following single oral dosing of 25 mg diclofenac potassium softgel capsule in healthy human", "type": "ADME, organism-based", "design": "dietary status Fed, dose 25 mg, dosed compound id 2.46815e+06, dosed compound name Diclofenac potassium, gender Mixed, regimen Single, route oral, study doses 25/50 mg", "settings": "both, plasma"}, "[14]": {"test": "Mean apparent terminal elimination rate constant value of diclofenac following single oral dosing of 50 mg Cataflam tablet in healthy human", "type": "ADME, organism-based, Plasma", "design": "dietary status Fed, dose 50 mg, dosed compound id 2.46815e+06, dosed compound name Diclofenac potassium, gender Mixed, regimen Single, route oral", "settings": "in vivo"}, "[15]": {"test": "as §2", "type": "ADME, organism-based", "design": "dietary status Fasting, dose 50 mg, dosed compound id 2.46815e+06, dosed compound name Diclofenac potassium, gender Mixed, regimen Single, route oral, study doses 50 mg", "settings": "both, plasma, read-out: Maximum Tmax"}, "[16]": {"test": "Mean Tmax of diclofenac following single oral dosing of 50 mg diclofenac potassium softgel capsule in healthy human", "type": "ADME, organism-based", "design": "dietary status Fasting, dose 50 mg, dosed compound id 2.46815e+06, dosed compound name Diclofenac potassium, gender Mixed, regimen Single, route oral, study doses 25/50 mg", "settings": "both, plasma"}, "[17]": {"test": "Mean Cmax value of diclofenac following single oral dosing of 50 mg Cataflam tablet in healthy human", "type": "ADME, organism-based", "design": "dietary status Fasting, dose 50 mg, dosed compound id 2.46815e+06, dosed compound name Diclofenac potassium, gender Mixed, regimen Single, route oral", "settings": "both, plasma"}, "[18]": {"test": "Mean AUC (0-t) of diclofenac following single oral dosing of 25 mg diclofenac potassium softgel capsule in healthy human", "type": "ADME, organism-based", "design": "dietary status Fasting, dose 25 mg, dosed compound id 2.46815e+06, dosed compound name Diclofenac potassium, gender Mixed, regimen Single, route oral, study doses 25/50 mg", "settings": "both, plasma"}, "[19]": {"test": "Mean AUC(0-t) of diclofenac potassium following oral dosing of Cataflam 50 mf tablet in healthy human", "type": "ADME, organism-based", "design": "dietary status Fasting, dose 50 mg, dosed compound id 2.46815e+06, dosed compound name Diclofenac potassium, gender Mixed, regimen Single, route oral, study doses 50 mg", "settings": "both, plasma, 50 mg"}, "[20]": {"test": "Mean AUC (0-t) value of diclofenac following single oral dosing of 18 mg Zorvolex capsule in healthy human", "type": "ADME, organism-based", "design": "dietary status Fasting, dose 18 mg, dosed compound id 2.46815e+06, dosed compound name Diclofenac, gender Mixed, regimen Single, route oral", "settings": "both, plasma"}, "[21]": {"test": "(§3) Geometric mean for AUC (0-t) of diclofenac following single oral dosing of 50 mg Cataflam tablet in healthy human", "type": "ADME, organism-based", "design": "dietary status Fasting, dose 50 mg, dosed compound id 2.46815e+06, dosed compound name Diclofenac potassium, gender Mixed, regimen Single, route oral", "settings": "both, plasma"}, "[22]": {"test": "Mean AUC(0-t) of diclofenac following single oral dosing of 25 mg diclofenac potassium soft gelatin capsule in healthy human", "type": "ADME, organism-based", "design": "dietary status Fasting, dose 25 mg, dosed compound id 2.46815e+06, dosed compound name Diclofenac potassium, gender Mixed, regimen Single, route oral, study doses 25/50 mg", "settings": "both, plasma"}, "[23]": {"test": "Mean AUC(0-t) of diclofenac following single oral dosing of 50 mg Cataflam in healthy human", "type": "ADME, organism-based", "design": "dietary status Fasting, dose 50 mg, dosed compound id 2.46815e+06, dosed compound name Diclofenac potassium, gender Mixed, regimen Single, route oral, study doses 50 mg", "settings": "both, plasma"}, "[24]": {"test": "Mean Cmax value of diclofenac following single oral dosing of 35 mg Zorvolex capsule in healthy human", "type": "ADME, organism-based", "design": "dietary status Fasting, dose 35 mg, dosed compound id 2.46815e+06, dosed compound name Diclofenac, gender Mixed, regimen Single, route oral", "settings": "both, plasma"}, "[25]": {"test": "as §1", "type": "ADME, organism-based", "design": "dietary status Fasting, dose 50 mg, dosed compound id 2.46815e+06, dosed compound name Diclofenac potassium, gender Mixed, regimen Single, route oral, study doses 25/50 mg", "settings": "both, plasma"}, "[26]": {"test": "Mean Tmax of diclofenac following single oral dosing of 50 mg Cataflam in healthy human", "type": "ADME, organism-based", "design": "dietary status Fasting, dose 50 mg, dosed compound id 2.46815e+06, dosed compound name Diclofenac potassium, gender Mixed, regimen Single, route oral, study doses 50 mg", "settings": "both, plasma"}, "[27]": {"test": "Mean AUC (0-t) value of diclofenac following single oral dosing of 35 mg Zorvolex capsule in healthy human", "type": "ADME, organism-based", "design": "dietary status Fed, dose 35 mg, dosed compound id 2.46815e+06, dosed compound name Diclofenac, gender Mixed, regimen Single, route oral", "settings": "both, plasma"}, "[28]": {"test": "clinical", "settings": "both, human, plasma, po, 50 mg", "remark": "listed apart in the source"}, "[29]": {"test": "Mean median Tmax value of diclofenac potassium following oral dosing of PRO-513 50 mg sachet in healthy human", "type": "ADME, organism-based", "design": "dietary status Fasting, dose 50 mg, dosed compound id 2.46815e+06, dosed compound name Diclofenac potassium, gender Mixed, regimen Single, route oral, study doses 50 mg", "settings": "both, plasma, read-out: Median Tmax"}, "[30]": {"test": "Maximum tmax of diclofenac following single oral dosing of 50 mg Cataflam tablet in healthy human", "type": "ADME, organism-based, Plasma", "design": "dietary status Fed, dose 50 mg, dosed compound id 2.46815e+06, dosed compound name Diclofenac potassium, gender Mixed, regimen Single, route oral", "settings": "in vivo"}, "[31]": {"test": "as §3", "type": "ADME, organism-based", "design": "dietary status Fed, dose 50 mg, dosed compound id 2.46815e+06, dosed compound name Diclofenac potassium, gender Mixed, regimen Single, route oral", "settings": "both, plasma"}, "[32]": {"test": "Mean AUC (0-infinity) of diclofenac following single oral dosing of 25 mg diclofenac potassium softgel capsule in healthy human", "type": "ADME, organism-based", "design": "time infinity, dietary status Fasting, dose 25 mg, dosed compound id 2.46815e+06, dosed compound name Diclofenac potassium, gender Mixed, regimen Single, route oral, study doses 25/50 mg", "settings": "both, plasma, read-out: AUC (0-infinity)"}}}
{"smiles": "O=C(O)Cc1ccccc1Nc1c(Cl)cccc1Cl", "note": "[DICLOFENAC]", "values": [{"measurement": "half-life", "setting": "[1]", "value": 87, "unit": "min"}, {"measurement": "Minimum Tmax", "setting": "[2]", "value": 4.8, "unit": "min"}, {"measurement": "lambda-z", "setting": "[3]", "value": 0.384, "unit": "h⁻¹"}, {"measurement": "Maximum Tmax", "setting": "[4]", "value": 240, "unit": "min"}, {"measurement": "AUC(0-inf)", "setting": "[5]", "value": 852, "unit": "ng·h/mL"}, {"measurement": "Cmax", "setting": "[6]", "value": 454, "unit": "ng/mL"}, {"measurement": "half-life", "setting": "[7]", "value": 64.2, "unit": "min"}, {"measurement": "Cmax", "setting": "[8]", "value": 1150, "unit": "ng/mL"}, {"measurement": "lambda-z", "setting": "[9]", "value": 0.349, "unit": "h⁻¹"}, {"measurement": "Tmax", "setting": "[10]", "value": 240, "unit": "min"}, {"measurement": "k el", "setting": "[11]", "value": 0.000108, "unit": "s⁻¹"}, {"measurement": "Tmax", "setting": "[12]", "value": 19.8, "unit": "min"}, {"measurement": "Cmax", "setting": "[13]", "value": 686, "unit": "ng/mL"}, {"measurement": "lambda-z", "setting": "[14]", "value": 0.332, "unit": "h⁻¹"}, {"measurement": "Tmax", "setting": "[15]", "value": 40.2, "unit": "min"}, {"measurement": "Tmax", "setting": "[16]", "value": 30.6, "unit": "min"}, {"measurement": "Cmax", "setting": "[17]", "value": 1190, "unit": "ng/mL"}, {"measurement": "AUC(0-t)", "setting": "[18]", "value": 691, "unit": "ng·h/mL"}, {"measurement": "AUC(0-t)", "setting": "[19]", "value": 1080, "unit": "ng·h/mL"}, {"measurement": "AUC(0-t)", "setting": "[20]", "value": 490, "unit": "ng·h/mL"}, {"measurement": "AUC(0-t)", "setting": "[21]", "value": 1290, "unit": "ng·h/mL"}, {"measurement": "AUC(0-t)", "setting": "[22]", "value": 579, "unit": "ng·h/mL"}, {"measurement": "AUC(0-t)", "setting": "[23]", "value": 1130, "unit": "ng·h/mL"}, {"measurement": "Cmax", "setting": "[24]", "value": 869, "unit": "ng/mL"}, {"measurement": "Cmax", "setting": "[25]", "value": 2360, "unit": "ng/mL"}, {"measurement": "Tmax", "setting": "[26]", "value": 55.8, "unit": "min"}, {"measurement": "AUC(0-t)", "setting": "[27]", "value": 861, "unit": "ng·h/mL"}, {"measurement": "half-life", "setting": "[28]", "value": 81, "unit": "min"}, {"measurement": "Tmax", "setting": "[29]", "value": 15, "unit": "min"}, {"measurement": "Maximum Tmax", "setting": "[30]", "value": 272, "unit": "min"}, {"measurement": "AUC(0-t)", "setting": "[31]", "value": 1150, "unit": "ng·h/mL"}, {"measurement": "AUC(0-inf)", "setting": "[32]", "value": 706, "unit": "ng·h/mL"}]}
